Broadly, the IC50 is the concentration needed to halve the response being measured.

Activity calls are given as the source filed them. The rule behind the calls is not given here.

In this experiment the test system is HEK-293T NF-kB luciferase reporter counterscreen, luminescence. Briefly: NF-kB reporter inhibition in HEK-293T, dose response, counter-screen for T-cell antigen receptor NF-kB inhibitors, HEK-293T cells, luminescence (AID 489041).
For `CC(=O)O[C@@]12CO[C@@H]1C[C@@H](O)[C@@]1(C)C(=O)[C@H](O)C3=C(C)[C@@H](OC(=O)[C@H](O)[C@@H](NC(=O)c4ccccc4)c4ccccc4)C[C@@](O)([C@@H](OC(=O)c4ccccc4)C12)C3(C)C` (some centres undefined), the IC50 is > 80 µM (inactive).
As to `C[C@@H]1O[C@@H](O[C@H]2C[C@@H](O)[C@]3(CO)[C@H]4[C@H](O)C[C@]5(C)[C@@H](C6COC(=O)C6)CC[C@]5(O)[C@@H]4CC[C@]3(O)C2)[C@H](O)[C@H](O)[C@H]1O` (some centres undefined), the 50% inhibitory concentration (IC50) is 0.87 µM.
Consider `CCN(CC)c1ccc2nc3ccccc3[n+](CC)c2c1`, for which the IC50 is 2.01 µM.
As to `Cn1ncnc2c(=O)n(C)c(=O)nc1-2`, the IC50 is 1.11 µM.
Consider `COc1cc(OC)c(/C=C2\C(=O)Nc3ccccc32)c(OC)c1`, for which the 50% inhibitory concentration (IC50) was 6.26 µM.
In the case of `N=c1ccn(CC(=O)c2ccc(-c3ccccc3)cc2)cc1`, the IC50 is 5.16 µM.
Then `Cc1cccc(N2CCN(C(=O)c3ccc4[nH]c(C)c(C)c4c3)CC2)c1C`, with 19.2 µM; and `CCCC(=O)NC(c1ccc(OC)cc1)c1ccc2cccnc2c1O` (centres undefined), with > 80 µM (inactive).
With `COc1ccc(-n2nnnc2-c2ccccc2)cc1`, the IC50 is > 80 µM (inactive).
Consider `O=C(NNc1ccnc2cc(Cl)ccc12)C1CCCCC1`, for which the IC50 was 0.33 µM.
Then `CCn1c(C)cc(C(=O)CN2C(=O)c3ccccc3S2(=O)=O)c1C`, with 5.36 µM.
`Cn1c(SC2=CS(=O)(=O)c3ccccc32)nc2ccccc21`: the IC50 is 12.2 µM.
Take `COc1ccc(/C=C2/C(=O)OCc3cc(OC)c(OC)cc32)cc1`: the IC50 was 12 µM.
Then `CN(Cc1ccccc1)C1=CC(=[N+]2CCCC2)CC(C)(C)C1`, with 1.61 µM; and `CCC1CCCCN1C(=O)c1cc(COc2ccc3ncccc3c2)on1` (centres undefined), with 2.44 µM; and `CCOc1cc(C(=O)N/N=C/C(Br)=C/c2ccccc2)cc(OCC)c1OCC`, with 1.11 µM.
On to `CCc1ccc(/C=N/NC(=O)c2cc(C3CC3)nc3ccccc23)s1`, for which the IC50 was 10.3 µM.
For the compound `Cc1nc2c(=O)n(C)c(=O)nc-2n(C)n1`, the IC50 is 1.88 µM.
`CCn1ncc(C2=NOC(C(=O)NCc3ccc(Cl)cc3)C2)c1C` (centres undefined): the IC50 is 26 µM (inactive).
Regarding `Cc1ccc2nc(-c3ccc4c(c3)OCCO4)cn2c1`, the IC50 was 2.34 µM.
Turning to `CCSc1nc2ccccc2n1C(=O)/C=C\c1ccc(OC)c(OC)c1`, the IC50 was 18.2 µM.
For the compound `CCOc1ccc(Nc2cc(C)nc(-n3nc(C)cc3C)n2)cc1`, the IC50 was 3.93 µM.
Then `Cc1ccc(Oc2ccc(OCC(=O)Nc3ccncc3)cc2)cc1`, with 0.62 µM; and `Cc1oc2c(c1C(=O)NCc1cccnc1)C(=O)c1ccccc1C2=O`, with 1.48 µM; and `COc1cccc(N2CCN(C(=O)c3ccc(CS(=O)c4ccccc4C)o3)CC2)c1` (centres undefined), with 8.21 µM.
`Cc1ccc2c(c1)COc1c3ccc(C(=O)O)cc3nn1-2`: the IC50 is 12.9 µM.
For `COc1ccc(S(=O)(=O)/N=C2\C=C(Nc3ccc(O)cc3)C(=O)c3ccccc32)cc1`, the IC50 is 1.03 µM.
Then `COc1cc(/C=C/C(=O)c2ccc([N+](=O)[O-])o2)ccc1O`, with 7.49 µM; and `O=C1c2cccc3cc([N+](=O)[O-])cc(c23)C(=O)N1CCN1CCCC1`, with > 80 µM (inactive).
Turning to `O=C(N/N=C(\c1ccccc1)c1cccnc1)c1cccc(F)c1`, the IC50 is > 80 µM (inactive).
Turning to `CCOC(=O)N=Nc1c2ccccc2c2nc3no[nH]c3nc12`, the 50% inhibitory concentration (IC50) was 0.52 µM.
Consider `CC1CCN(c2c(NCc3ccc(C(=O)N4CCc5ccccc54)cc3)c(=O)c2=O)CC1`, for which the IC50 was 7.14 µM.
As for `COc1ccc(C2=Nn3c(nnc3-c3ccccc3OC)SC2)cc1OC1CCCC1`, the IC50 is 3.68 µM.
As for `COc1ccc(-c2csc(NC(=O)C3CCN(c4ncnc5sc(C)c(C)c45)CC3)n2)cc1OC`, the IC50 is 13.1 µM.
In the case of `O=C(Nc1ccncc1)C1CCCN(S(=O)(=O)c2cccc3cccnc23)C1` (centres undefined), the IC50 is 35.1 µM (inactive).
Then `COc1cc(-c2noc(C)c2/C=C/c2cccc([N+](=O)[O-])c2)cc(OC)c1OC`, with 9.59 µM; and `COc1ccc(-c2ccc3oc(-c4ccc(OC)cc4)c(C#CCO)c3c2)cc1`, with 14.2 µM.
With `Cc1ccc(NC(=O)Nc2ccnc(-c3cccnc3)n2)cc1`, the IC50 was > 80 µM (inactive).
Take `Cc1nc(SCC(=O)Nc2nc3ccccc3s2)c(C#N)c(C)c1C`: the IC50 is < 0.16 µM.
Then `CCn1c2ccccc2c2cc(NC(=O)c3cc(OC)cc(OC)c3)ccc21`, with > 80 µM (inactive); and `COc1ccc(NC(=O)/C(Cl)=C(/Cl)S(=O)Cc2ccccc2Cl)cn1` (centres undefined), with 3.95 µM.
On to `CCN(CC)c1ccc(NC(=O)c2cc(OC)cc(OC)c2)c(C)c1`, for which the IC50 was 6 µM.
With `Cc1cnc(NC(=O)c2ccc3c(c2)OCCO3)s1`, the IC50 is 3.78 µM.
With `CCCCC(=O)NC(c1ccc(N(CC)CC)cc1)c1ccc2cccnc2c1O` (centres undefined), the IC50 was > 80 µM (inactive).
As to `O=Cc1cc2ccccc2nc1SCc1ccc(Cl)c(Cl)c1`, the IC50 was 5.54 µM.
Take `COc1ccccc1C(=O)N(CCC1CCCN1C)c1nc2ccccc2s1` (centres undefined): the concentration for half-maximal inhibition (IC50) is 18.6 µM.
`O=[N+]([O-])c1nn(-c2ccc3c(c2)OCCO3)n(O)c1=Nc1ccccc1`: the IC50 is 12.4 µM.
Then `Cc1cc(C)c(S(=O)(=O)Nc2ccc3c4c(cccc24)CC3)c(C)c1`, with 1.73 µM; and `CC(C)c1ccc(/C=N/Nc2ccc(C(=O)O)cc2)cc1`, with 4.37 µM.
Then `O=C(Nc1ccc(CSc2ccccc2)cc1)c1ccc(CN2CCOCC2)cc1`, with 0.34 µM; and `O=C(N/N=C/c1c(O)ccc2ccccc12)c1ccc(Br)o1`, with 0.55 µM.
Then `COc1cccc(N/C(N)=N/c2nc(CSc3ccccn3)cc(=O)[nH]2)c1`, with 5.9 µM; and `CCCCCCCCn1c2c(c(=N)c3ccccc31)CCC2`, with 1.39 µM; and `O=C(Nc1ccc(N2CCOCC2)cc1)c1ccc(Cl)c(S(=O)(=O)N2CCCCC2)c1`, with 1.15 µM.
In the case of `COc1cc2c(c(OC)c1OC)-c1ccc(O)cc1[C@@H](NC(C)=O)CC2`, the IC50 is > 80 µM (inactive).
For `CC(Oc1ccc(Cl)cc1Cl)C(=O)Nc1ccncc1` (centres undefined), the IC50 was 6.73 µM.
For the compound `CCOC(=O)c1c(C)[nH]c(C(=O)N/N=C/c2ccc(Br)cc2)c1C`, the half-maximal inhibitory concentration (IC50) was < 0.16 µM.
Regarding `CC(=O)Nc1ccc(S(=O)(=O)N2CCSc3ccccc32)cc1`, the IC50 was 21.3 µM (inactive).
Consider `CC(Nc1ncnc2ccccc12)c1ccccc1` (centres undefined), for which the IC50 was 3.28 µM.
With `COc1ccc(Br)cc1/C(C)=N/NC1=NCCN1`, the IC50 is 9.87 µM.
With `COc1ccc(Nc2nc3cc(C)ccc3cc2C#N)c(OC)c1`, the IC50 was > 80 µM (inactive).
Then `Nc1nc(-c2ccccc2)cc(N2CCCCC2)n1`, with 2.23 µM.
On to `CCOc1ccccc1C1CC(=O)Nc2cc3c(cc21)OCO3` (centres undefined), for which the IC50 is 6.14 µM.
Consider `CCOc1ccc(N(C)S(=O)(=O)c2ccc(-c3cc(C)no3)s2)cc1`, for which the IC50 is 7.17 µM.
Then `O=c1cc(-c2cccc(F)c2)[nH]c2ccccc12`, with 1.05 µM; and `CCCSc1nnc(Sc2nnnn2-c2ccccc2)s1`, with 9.43 µM.
On to `COc1cc(C2C(C#N)=C(N)Oc3cc4c(cc32)OCO4)cc(OC)c1OC` (centres undefined), for which the IC50 is 3.86 µM.
Turning to `Cc1ccnc2c1ccc1c(C)ccnc12`, the IC50 was > 80 µM (inactive).
Then `CC(C)(C)c1csc(Sc2ccc([N+](=O)[O-])cn2)n1`, with 36.1 µM (inactive); and `O=S(=O)(c1cc(F)ccc1F)N1CCN(c2ncnc3ccccc23)CC1`, with 3.94 µM; and `CCCCC(=O)NC(c1ccc(Cl)cc1)c1ccc2cccnc2c1O` (centres undefined), with > 80 µM (inactive).
With `CN1/C(=C\C(=O)C[n+]2ccc3ccccc3c2)C(C)(C)c2ccccc21`, the concentration for half-maximal inhibition (IC50) was 4.62 µM.
Take `CNC[C@@H](CC1CCCCC1)NC[C@H](CC(C)C)NCCc1cccc(C(F)(F)F)c1`: the IC50 was 12.8 µM.
Then `Cc1ccc(C(=O)c2cc([N+](=O)[O-])ccc2N2CCCCC2)cc1C`, with 6.16 µM; and `COc1ccccc1N1CCN(C(=O)c2cc(=O)c3cc(C)cc(C)c3o2)CC1`, with 76 µM (inactive); and `O=C(Nc1ccc(S(=O)(=O)N2CCCC2)cc1)c1ccc(CN2CCc3ccccc3C2)cc1`, with 0.73 µM.
With `CCCC(=O)Nc1nc2ccc(NC(=O)c3c(F)c(F)c(OC)c(F)c3F)cc2s1`, the IC50 was > 80 µM (inactive).
As for `Cc1ccc(C(=O)N/N=C/c2ccc([N+](=O)[O-])s2)cc1`, the 50% inhibitory concentration (IC50) is 4.36 µM.
Then `CCCCCCCOc1ccc(OC(=O)c2cccnc2)cc1`, with > 80 µM (inactive); and `CCN(CC)c1ccc(/C=N/NC(=O)c2cccc(S(=O)(=O)Nc3ccccc3OC)c2)c(O)c1`, with 0.23 µM.
Then `CCCCN=C[C@]12CCC(O)CC1(O)CCC1[C@@H]2CC[C@]2(C)[C@H](C3C=CC(=O)O3)CCC12O` (some centres undefined), with 0.34 µM.
Then `Clc1cccc(Cl)c1OCCOCCNCc1ccccc1`, with 68.4 µM (inactive); and `Cc1ccccc1NC1=C/C(=N\S(=O)(=O)c2cccs2)c2ccccc2C1=O`, with 0.41 µM; and `Cc1ccc(S(=O)(=O)Nc2cccc(-c3ccc4nncn4n3)c2)cc1`, with 18.4 µM.
Turning to `CC(=O)c1c(C)[nH]c(C(=O)OCC(=O)Nc2ccc(C)cc2[N+](=O)[O-])c1C`, the IC50 was 0.79 µM.
Then `CCCCCCCn1c2c(c(=N)c3ccccc31)CCC2`, with 0.99 µM; and `COc1ccc(Nc2cc(C)nc(-n3nc(C)cc3C)n2)cc1`, with 6.55 µM; and `Cc1ccc(O)c(NC(=O)CCC2CCCCC2)c1`, with > 80 µM (inactive).
In the case of `COC(=O)c1ccc(Oc2cc(C)nc(SC)n2)cc1`, the IC50 is 28.8 µM (inactive).
With `Cc1cc(C)cc(NS(=O)(=O)c2ccc(-c3cnc(C4CC4)o3)cc2)c1`, the IC50 is 1.8 µM.
`CC(C)(C)c1cc(C=C(C#N)C#N)cc(C(C)(C)C)c1O`: the IC50 is 13.1 µM.
Take `CC(C)c1oc(=O)cc2c1[C@@H](O)[C@H]1OC(=O)[C@@]3(C)C[C@@H](O)[C@@H](O)[C@@]2(C)C13` (some centres undefined): the 50% inhibitory concentration (IC50) was 0.75 µM.
Turning to `Cc1ccc2c(c1)C=CC(C#N)N2C(=O)c1ccccc1` (centres undefined), the IC50 was 29.1 µM (inactive).
Then `Oc1ccc2ccccc2c1/C=N/Nc1nnc(-c2ncc[nH]2)c2ccccc12`, with 0.52 µM.

(Values after PubChem BioAssay AID489041 (Sanford-Burnham Center for Chemical Genomics, 2010).)
